According to patent publication US9302999B2, “Substituted triazoles as herbicides” (E. I. DU PONT DE NEMOURS AND COMPANY, priority 2012, dated 2016):

Legend:
Assay type in all cases: in vivo
[1] = system: bermudagrass (Cynodon dactylon); test: Test C pre-/postemergence: bermudagrass
Method in brief: (§1)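 Preemergence on seeds in loam/sand, postemergence on 2–18 cm (1–4-leaf) plants in peat-based medium; compounds in non-phytotoxic solvent with surfactant. After 13–15 days in greenhouse, visual rating versus controls, 0 (no effect) to 100 (complete control).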

[2] = system: woolly cupgrass (Eriochloa villosa); test: Test C pre-/postemergence: woolly cupgrass
Excerpt: (§2) Seeds of plant species selected from blackgrass (Alopecurus myosuroides), bromegrass, downy (downy bromegrass, Bromus tectorum), foxtail, green (green foxtail, Setaria viridis), ryegrass, Italian (Italian ryegrass, Lolium multiflorum), winter wheat (Triticum aestivum), wild oat (Avena fatua), galium (catchweed bedstraw, Galium aparine), bermudagrass (Cynodon dactylon), surinam grass (Brachiaria decumbens), cocklebur (common cocklebur, Xanthium strumarium), corn (Zea mays), large crabgrass (Digitaria sanguinalis), woolly cupgrass (Eriochloa villosa), foxtail, giant (giant foxtail, Setaria faberii), goosegrass (Eleusine indica), johnsongrass (Sorghum halepense), kochia (Kochia scoparia), lambsquarters (Chenopodium album), morningglory (Ipomoea coccinea), nightshade (eastern black nightshade, Solanum ptycanthum), nutsedge, yellow (yellow nutsedge, Cyperus esculentus), pigweed (Amaranthus retroflexus), ragweed (common ragweed, Ambrosia elation), soybean (Glycine max), common (oilseed) sunflower (Helianthus annuus), Russian thistle (Salsola kali) and velvetleaf (Abutilon theophrasti) were planted into a blend of loam soil and sand and treated preemergence with test chemicals formulated in a non-phytotoxic solvent mixture which included a surfactant.
(§3) At the same time, plants selected from these crop and weed species and also barley (winter barley, Hordeum vulgare), canarygrass (Phalaris minor), chickweed (common chickweed, Stellaria media) windgrass (Apera spica-venti) and deadnettle (henbit deadnettle, Lamium amplexicaule) were planted in pots containing Redi-Earth® planting medium (Scotts Company, 14111 Scottslawn Road, Marysville, Ohio 43041) comprising spaghnum peat moss, vermiculite, wetting agent and starter nutrients and treated with postemergence applications of test chemicals formulated in the same manner. Plants ranged in height from 2 to 18 cm (1- to 4-leaf stage) for postemergence treatments.
(§4) Treated plants and controls were maintained in a greenhouse for 13 to 15 days, after which time all species were compared to controls and visually evaluated. Plant response ratings, summarized in Table C, are based on a scale of 0 to 100 where 0 is no effect and 100 is complete control. A dash (-) response means no test result.

[3] = system: windgrass (Apera spica-venti); test: Test C postemergence: windgrass
Method in brief: (§5)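 Greenhouse pot test; foliar postemergence treatment at 1- to 4-leaf stage. Rated visually at 13 to 15 days on a 0–100 control scale relative to untreated plants.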

[4] = system: bromegrass, downy (downy bromegrass, Bromus tectorum); test: Test C pre-/postemergence: bromegrass, downy
Method in brief: as §1

[5] = system: goosegrass (Eleusine indica); test: Test C pre-/postemergence: goosegrass
Excerpt: as §2, §3, §4

[6] = system: cocklebur (common cocklebur, Xanthium strumarium); test: Test C pre-/postemergence: cocklebur
Excerpt: as §2, §3, §4

[7] = system: surinam grass (Brachiaria decumbens); test: Test C pre-/postemergence: surinam grass
Method in brief: as §1

[8] = system: canarygrass (Phalaris minor); test: Test C postemergence: canarygrass
Method in brief: as §5

[9] = system: deadnettle (henbit deadnettle, Lamium amplexicaule); test: Test C postemergence: deadnettle
Excerpt: as §3, §4

[10] = system: common (oilseed) sunflower (Helianthus annuus); test: Test C pre-/postemergence: sunflower; conditions: Preemergence
Method in brief: as §1

[11] = Postemergence, 31 g ai/ha, scale 0 to 100 (0 no effect, 100 complete control)
[12] = Postemergence, 62 g ai/ha, scale 0 to 100 (0 no effect, 100 complete control)
[13] = Postemergence, 125 g ai/ha, scale 0 to 100, 0 no effect, 100 complete control
[14] = Postemergence, 250 g ai/ha, scale 0 to 100
[15] = Preemergence, 31 g ai/ha, scale of 0 to 100, 0 is no effect, 100 is complete control
[16] = Preemergence, 62 g ai/ha, scale 0 to 100, 0 no effect, 100 complete control
[17] = Preemergence, 125 g ai/ha, scale 0 to 100, 0 no effect, 100 complete control
[18] = Preemergence, 250 g ai/ha, scale 0 to 100, 0 no effect, 100 complete control
[19] = Preemergence, 62 g ai/ha, scale of 0 to 100, 0 is no effect, 100 is complete control
[20] = 31 g ai/ha, scale 0 to 100 (0 no effect, 100 complete control)
[21] = 62 g ai/ha, scale 0 to 100 (0 no effect, 100 complete control)
[22] = 125 g ai/ha, scale 0 to 100, 0 no effect, 100 complete control
[23] = 31 g ai/ha, scale of 0 to 100, 0 is no effect, 100 is complete control
[24] = 250 g ai/ha, scale 0 to 100, 0 no effect, 100 complete control

## FC(F)Oc1nn(-c2ccc(C(F)(F)F)cc2)nc1Cc1ccnc(C(F)(F)F)c1 [Compound 26]
[1]; [11]
  Plant response rating, Bermudagrass: 20
[1]; [12]
  Plant response rating, Bermudagrass: 20
[1]; [13]
  Plant response rating, Bermudagrass: 30
[1]; [14]
  Plant response rating, Bermudagrass: 30
[1]; [15]
  Plant response rating, Bermudagrass: 75
[1]; [16]
  Plant response rating, Bermudagrass: 100
[1]; [17]
  Plant response rating, Bermudagrass: 100
[1]; [18]
  Plant response rating, Bermudagrass: 100
[2]; [11]
  Plant response rating, Cupgrass, Woolly: 25
[2]; [12]
  Plant response rating, Cupgrass, Woolly: 40
[2]; [13]
  Plant response rating, Cupgrass, Woolly: 45
[2]; [14]
  Plant response rating, Cupgrass, Woolly: 55
[2]; [15]
  Plant response rating, Cupgrass, Woolly: 10
[2]; [19]
  Plant response rating, Cupgrass, Woolly: 65
[2]; [17]
  Plant response rating, Cupgrass, Woolly: 70
[2]; [18]
  Plant response rating, Cupgrass, Woolly: 90
[3]; [20]
  Plant response rating, Windgrass: 40
[3]; [21]
  Plant response rating, Windgrass: 55
[3]; [22]
  Plant response rating, Windgrass: 80
[3]; 250 g ai/ha, scale 0 to 100
  Plant response rating, Windgrass: 80
[4]; [11]
  Plant response rating, Bromegrass, Downy: 15
[4]; [12]
  Plant response rating, Bromegrass, Downy: 30
[4]; [13]
  Plant response rating, Bromegrass, Downy: 40
[4]; [14]
  Plant response rating, Bromegrass, Downy: 50
[4]; [15]
  Plant response rating, Bromegrass, Downy: 5
[4]; [16]
  Plant response rating, Bromegrass, Downy: 45
[4]; [17]
  Plant response rating, Bromegrass, Downy: 50
[4]; [18]
  Plant response rating, Bromegrass, Downy: 85
[5]; [11]
  Plant response rating, Goosegrass: 25
[5]; [12]
  Plant response rating, Goosegrass: 30
[5]; [13]
  Plant response rating, Goosegrass: 40
[5]; [14]
  Plant response rating, Goosegrass: 70
[5]; [15]
  Plant response rating, Goosegrass: 95
[5]; [19]
  Plant response rating, Goosegrass: 100
[5]; [17]
  Plant response rating, Goosegrass: 100
[5]; [18]
  Plant response rating, Goosegrass: 100
[6]; [11]
  Plant response rating, Cocklebur: 10
[6]; [12]
  Plant response rating, Cocklebur: 15
[6]; [13]
  Plant response rating, Cocklebur: 55
[6]; [14]
  Plant response rating, Cocklebur: 65
[6]; [15]
  Plant response rating, Cocklebur: 0
[6]; [16]
  Plant response rating, Cocklebur: 5
[6]; [17]
  Plant response rating, Cocklebur: 15
[6]; [18]
  Plant response rating, Cocklebur: 55
[7]; [11]
  Plant response rating, Surinam Grass: 15
[7]; [12]
  Plant response rating, Surinam Grass: 20
[7]; [13]
  Plant response rating, Surinam Grass: 25
[7]; [14]
  Plant response rating, Surinam Grass: 45
[7]; [15]
  Plant response rating, Surinam Grass: 10
[7]; [19]
  Plant response rating, Surinam Grass: 50
[7]; [17]
  Plant response rating, Surinam Grass: 65
[7]; [18]
  Plant response rating, Surinam Grass: 90
[8]; [20]
  Plant response rating, Canarygrass: 40
[8]; [21]
  Plant response rating, Canarygrass: 45
[8]; [22]
  Plant response rating, Canarygrass: 90
[8]; 250 g ai/ha, scale 0 to 100
  Plant response rating, Canarygrass: 90
[9]; [20]
  Plant response rating, Deadnettle: 98
[9]; [21]
  Plant response rating, Deadnettle: 98
[9]; [22]
  Plant response rating, Deadnettle: 98
[9]; 250 g ai/ha, scale 0 to 100
  Plant response rating, Deadnettle: 100
[10]; [23]
  Plant response rating, Sunflower: 0
[10]; [22]
  Plant response rating, Sunflower: 10
[10]; [24]
  Plant response rating, Sunflower: 15

## COc1nn(-c2cccc(F)c2)nc1Cc1ccnc(C(F)(F)F)c1 [Compound 139]
[1]; [11]
  Plant response rating, Bermudagrass: 35
[1]; [12]
  Plant response rating, Bermudagrass: 40
[1]; [13]
  Plant response rating, Bermudagrass: 55
[1]; [14]
  Plant response rating, Bermudagrass: 80
[1]; [15]
  Plant response rating, Bermudagrass: 98
[1]; [19]
  Plant response rating, Bermudagrass: 100
[1]; [17]
  Plant response rating, Bermudagrass: 100
[1]; [18]
  Plant response rating, Bermudagrass: 100
[2]; [11]
  Plant response rating, Cupgrass, Woolly: 15
[2]; [12]
  Plant response rating, Cupgrass, Woolly: 30
[2]; [13]
  Plant response rating, Cupgrass, Woolly: 50
[2]; [15]
  Plant response rating, Cupgrass, Woolly: 30
[2]; [19]
  Plant response rating, Cupgrass, Woolly: 40
[2]; [17]
  Plant response rating, Cupgrass, Woolly: 75
[2]; [18]
  Plant response rating, Cupgrass, Woolly: 90
[3]; [20]
  Plant response rating, Windgrass: 50
[3]; [21]
  Plant response rating, Windgrass: 70
[3]; [22]
  Plant response rating, Windgrass: 80
[4]; [11]
  Plant response rating, Bromegrass, Downy: 5
[4]; [12]
  Plant response rating, Bromegrass, Downy: 10
[4]; [13]
  Plant response rating, Bromegrass, Downy: 15
[4]; [14]
  Plant response rating, Bromegrass, Downy: 30
[4]; [15]
  Plant response rating, Bromegrass, Downy: 0
[4]; [19]
  Plant response rating, Bromegrass, Downy: 20
[4]; [18]
  Plant response rating, Bromegrass, Downy: 85
[5]; [11]
  Plant response rating, Goosegrass: 15
[5]; [12]
  Plant response rating, Goosegrass: 40
[5]; [13]
  Plant response rating, Goosegrass: 60
[5]; [14]
  Plant response rating, Goosegrass: 80
[5]; [15]
  Plant response rating, Goosegrass: 98
[5]; [19]
  Plant response rating, Goosegrass: 100
[5]; [17]
  Plant response rating, Goosegrass: 100
[5]; [18]
  Plant response rating, Goosegrass: 100
[6]; [19]
  Plant response rating, Cocklebur: 0
[6]; [17]
  Plant response rating, Cocklebur: 0
[6]; [18]
  Plant response rating, Cocklebur: 5
[7]; [11]
  Plant response rating, Surinam Grass: 10
[7]; [12]
  Plant response rating, Surinam Grass: 35
[7]; [13]
  Plant response rating, Surinam Grass: 35
[7]; [14]
  Plant response rating, Surinam Grass: 40
[7]; [15]
  Plant response rating, Surinam Grass: 15
[7]; [19]
  Plant response rating, Surinam Grass: 65
[7]; [17]
  Plant response rating, Surinam Grass: 85
[7]; [18]
  Plant response rating, Surinam Grass: 98
[8]; [20]
  Plant response rating, Canarygrass: 40
[8]; [21]
  Plant response rating, Canarygrass: 45
[8]; [22]
  Plant response rating, Canarygrass: 60
[8]; 250 g ai/ha, scale 0 to 100
  Plant response rating, Canarygrass: 80
[9]; [20]
  Plant response rating, Deadnettle: 95
[9]; [21]
  Plant response rating, Deadnettle: 95
[9]; [22]
  Plant response rating, Deadnettle: 98
[9]; 250 g ai/ha, scale 0 to 100
  Plant response rating, Deadnettle: 100
[10]; [23]
  Plant response rating, Sunflower: 0
[10]; 62 g ai/ha, scale of 0 to 100, 0 is no effect, 100 is complete control
  Plant response rating, Sunflower: 0
[10]; [22]
  Plant response rating, Sunflower: 5
[10]; [24]
  Plant response rating, Sunflower: 10
